Results: patent US5476944A, “Derivatives of cyclic phenolic thioethers” (G. D. Searle & Co., priority 1994, dated 1995)

What was measured:
5-lipoxygenase = target: T1, 5-lipoxygenase (Rattus norvegicus, UniProt P12527); assay: Inhibition of 5-lipoxygenase, in vitro (5-HETE formation, RBL-1 homogenate supernatant); type: biochemical; details: RBL-1 supernatant
T1 construct: The 100,000×g supernatant fraction of Rat Basophilic Leukemia Cell Homogenate (RBL-1); endogenous in cells; host or cells: RBL-1 (rat basophilic leukemia) cells, 100,000xg supernatant of homogenate
T1 sequence (P12527 1-673): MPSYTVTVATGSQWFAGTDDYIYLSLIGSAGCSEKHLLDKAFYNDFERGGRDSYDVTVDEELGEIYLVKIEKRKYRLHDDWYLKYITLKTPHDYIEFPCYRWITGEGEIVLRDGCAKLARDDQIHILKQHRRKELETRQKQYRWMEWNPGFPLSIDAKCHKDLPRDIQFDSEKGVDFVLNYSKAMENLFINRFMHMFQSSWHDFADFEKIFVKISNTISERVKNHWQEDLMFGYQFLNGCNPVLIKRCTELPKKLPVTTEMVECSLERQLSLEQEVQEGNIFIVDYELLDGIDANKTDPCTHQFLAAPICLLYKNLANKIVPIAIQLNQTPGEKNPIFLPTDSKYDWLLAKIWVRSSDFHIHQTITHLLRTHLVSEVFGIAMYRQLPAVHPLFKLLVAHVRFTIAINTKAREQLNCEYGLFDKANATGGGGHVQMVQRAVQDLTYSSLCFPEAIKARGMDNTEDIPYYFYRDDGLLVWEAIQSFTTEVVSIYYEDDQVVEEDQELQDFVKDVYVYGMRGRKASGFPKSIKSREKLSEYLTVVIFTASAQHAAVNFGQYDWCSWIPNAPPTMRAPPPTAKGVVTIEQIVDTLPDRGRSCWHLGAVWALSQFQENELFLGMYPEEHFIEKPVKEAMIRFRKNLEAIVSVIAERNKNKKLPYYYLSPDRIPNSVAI
Protocol: The compounds of the invention are evaluated with respect to 5-lipoxygenaseinhibition according to the following assay procedure.
Inhibition of 5-lipoxygenase, in vitro:
The 100,000×g supernatant fraction of Rat Basophilic Leukemia Cell Homogenate (RBL-1) serves as a 5-lipoxygenase enzyme source. The enzyme is incubated with [1-^4 C)-arachidonic acid and Ca++ in the presence and absence of test compound. The product of 5-lipoxygenase, 5-hydroxyeicosatetraenoic acid (5-HETE), is separated by thin-layer chromatography and measured by radioactivity. A compound inhibiting 5-HETE synthesis by 30% or more is considered active at that concentration.
For comparison the compound of Formula XX, a known 5-lipoxygenase inhibitor described in U.S. Pat. No. 4,755,524 was used: [drawing 29] (±)[2S*-[[3,5-bis(1,1-dimethylethyl)-4-hydroxyphenyl]thio]-1R*-methylpro poxy]acetic acid.

COX-I = target: T2, COX-I (Homo sapiens, UniProt P23219); assay: Human Enzyme Assay, recombinant COX-I (PGE2 ELISA); type: biochemical
T2 construct: made in house; host or cells: SF9 insect cells, recombinant baculovirus (pVL1393); coding fragment from Cayman Chemical
Protocol: The compounds of the invention are evaluated with respect to COX-I and COX-II activity in vitro using an enzyme based assay according to the following assay procedure.
(a) Preparation of Recombinant COX Baculoviruses
A 2.0 kb fragment containing the coding region for either human or murine COX-I (Caymen Chemical, Ann Arbor, Mich.), or human or murine COX-II (Caymen Chemical, Ann Arbor, Mich.), was cloned into a BamH1 site of the baculovirus transfer vector pVL1393 (Invitrogen, Palo Alto, Calif.) to generate a baculovirus transfer vector. Recombinant baculoviruses were isolated by transfecting 4 μg of baculovirus transfer vector DNA into SF9 cells (2×10e8) (Invitrogen, Palo Alto, Calif.) along with 200 ng of linearized bacium by the phosphate method. See M. D. Summers et al., "A Manual of Methods for Baculovirus Vectors and Insect Cell Culture Procedure," TEXAS AGRICULTURE EXPERIMENTAL STATION BULLETIN, No. 1555 (1987), which is incorporated herein by reference. Recombinant viruses were purified by three rounds of plaque purification, and high titer (10e7-10e8 pfu/ml) stocks of virus were prepared. For large scale production, SF9 insect cells (Invitrogen, Palo Alto, Calif.) were infected in 10 liter fermentors (0.5×10^6 /ml) with the recombinant baculovirus stock, such that the multiplicity of infection was 0.1. After 72 hours, the cells were centrifuged and the cell pellet was homogenized in Tris/Sucrose (50 mM: 25%, pH 8.0) containing 1% CHAPS. The homogenate was centrifuged at 10,000×G for 30 minutes, and the resultant supernatant was stored at -80° C. before being assayed for COX activity.
b. Assay for COX-I and COX-II activity:
COX activity was assayed as PGE2 formed/μg protein/time using an ELISA (Caymen Chemical, Ann Arbor, Mich.) to detect the prostaglandin E2 released. CHAPS-solubilized insect cell membranes containing the appropriate COX enzyme were incubated in a potassium phosphate buffer (50 mM, pH 8.0) containing phenol (0.5 mM), and heme (1 μM) with the addition of arachidonic acid (10 μM). Compounds of the present invention were pre-incubated with the enzyme for 10-20 minutes prior to the addition of the COX-I and COX-II enzyme substrate arachidonic acid (10 μM). Any reaction between the arachidonic acid and the enzyme was stopped after ten minutes at 37° C./room temperature by transferring 40 μl of reaction mix into […] ELISA buffer and 25 μM indomethacin. The PGE2 formed was measured by standard ELISA technology (Cayman Chemical, Ann Arbor, Mich.).
The results for this assay, as well as for the next assay (COX-II Cell Fibroblast Assay) are expressed in terms of COX-I or II activity as an IC50 value (50% inhibitory concentration), as defined as the amount of prostaglandin E2 (PGE2) formed per protein per time in response to the enzyme substrate arachidonic acid.

T2 sequence (P23219 24-599): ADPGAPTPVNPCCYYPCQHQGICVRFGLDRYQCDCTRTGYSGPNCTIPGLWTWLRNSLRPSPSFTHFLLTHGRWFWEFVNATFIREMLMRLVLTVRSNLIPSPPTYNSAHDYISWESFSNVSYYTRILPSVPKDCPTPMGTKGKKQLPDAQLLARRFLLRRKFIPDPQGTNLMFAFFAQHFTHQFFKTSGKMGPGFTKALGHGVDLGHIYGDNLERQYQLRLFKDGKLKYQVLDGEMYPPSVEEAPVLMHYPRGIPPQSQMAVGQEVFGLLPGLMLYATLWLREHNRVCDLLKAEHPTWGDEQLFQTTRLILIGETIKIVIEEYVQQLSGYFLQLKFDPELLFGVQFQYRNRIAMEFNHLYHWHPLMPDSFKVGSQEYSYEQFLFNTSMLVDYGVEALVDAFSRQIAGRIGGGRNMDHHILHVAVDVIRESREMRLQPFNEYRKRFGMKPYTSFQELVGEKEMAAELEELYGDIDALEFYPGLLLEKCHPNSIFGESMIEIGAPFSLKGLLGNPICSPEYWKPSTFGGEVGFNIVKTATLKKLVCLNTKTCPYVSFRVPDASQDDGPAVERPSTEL

IC50 (5-lipoxygenase): > 100 µM | IC50 (COX-I): > 100 µM
Structure (SMILES): CC(C)(C)c1cc(S[C@H]2CCCC[C@H]2OCC(=O)O)cc(C(C)(C)C)c1 (racemic) [Example 72, (±)cis-2-[[2-[[3,5-bis(1,1-dimethylethyl)phenyl]thio]cyclohexyl]oxy]acetic acid]
